Test results from patent publication US20180078655A1, “IMMUNOCONJUGATES FOR SPECIFIC INDUCTION OF T CELL CYTOTOXICITY AGAINST A TARGET CELL” (priority 2015, published 2018).

System: A-375, PC-3, HCT-116 tumor cell lines
Experiment: LDH release assay and xCELLigence, FLU peptide immunoconjugate
Assay type: cell-based, human
Details: xCELLigence, 6, 10 and 18 hours

Sequence: CTELKLSDY [free peptide]
- tumor cell killing over the course of time: usually decreased in higher incubation times
